Source: patent US20060069132A1, “Azolecarboxamide herbicides” (priority 2004, published 2006)
Read-outs that look alike come from different tables or passages of the source.

Key:
johnsongrass = assay: Test C pre-/postemergence herbicide test; format: in vivo, Sorghum halepense; conditions: for Johnsongrass plant response rating: 500 g ai/ha
Procedure, shortened: (§1)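 Greenhouse-grown plants were evaluated visually 12 to 14 days after treatment, with 100 meaning complete control and 0 no effect. Application was preemergence, or postemergence at 2 to 18 cm.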

common ragweed = assay: Test C pre-/postemergence herbicide test; format: in vivo, Ambrosia elatior; set-up: key to Plant response rating, Ragweed: 0 = no effect, 100 = complete control; conditions: for Ragweed plant response rating: 500 g ai/ha
Procedure, shortened: as §1

barnyardgrass = assay: Test A pre-/postemergence herbicide test; format: in vivo, Echinochloa crus-galli; conditions: for pest or weed control at 500 g/ha / pest or weed control at 2000 g/ha: Echinochloa crus-galli, 240 h
Procedure, shortened: (§2)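 Plants are held in greenhouse about ten days after treatment, then compared with untreated controls and scored 0 (no effect) to 100 (complete control). Preemergence dosing is a directed soil spray on sown sandy loam; postemergence dosing is spray to runoff at 2–10 cm height.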

giant foxtail [1] = assay: Test C pre-/postemergence herbicide test; format: in vivo, Setaria faberi; conditions: for Foxtail, Giant plant response rating: 500 g ai/ha; for Plant response rating, Foxtail, Giant: visual, 12 to 14 days
Procedure, shortened: as §1

corn = assay: Test C pre-/postemergence herbicide test; format: in vivo, Zea mays; conditions: for Corn plant response rating: 500 g ai/ha; for Plant response rating, Corn: visual, 12 to 14 days
Procedure, shortened: as §1

large crabgrass = assay: Test A pre-/postemergence herbicide test; format: in vivo, Digitaria sanguinalis; conditions: for pest or weed control at 500 g/ha / pest or weed control at 2000 g/ha: Digitaria sanguinalis, 240 h
Procedure, shortened: as §2

kochia = assay: Test C pre-/postemergence herbicide test; format: in vivo, Kochia scoparia; conditions: for Kochia plant response rating: 500 g ai/ha
Procedure, shortened: as §1

giant foxtail [2] = assay: Test A pre-/postemergence herbicide test; format: in vivo, Setaria faberi; conditions: for pest or weed control at 500 g/ha / pest or weed control at 2000 g/ha: Setaria faberi, 240 h
Procedure, shortened: as §2

[3] = 125 g ai/ha, scale 0 (no effect) to 100 (complete control), visual, 12 to 14 days, preemergence
[4] = Preemergence, scale 0 to 100, 0 no effect, 100 complete control
[5] = Postemergence, 500 g ai/ha, 0 to 100 scale, 0 no effect, 100 complete control
[6] = Postemergence, 2000 g ai/ha, 0 to 100 scale, 0 no effect, 100 complete control
[7] = Preemergence, 500 g ai/ha, visual rating, 0 to 100 scale (0 no effect, 100 complete control)
[8] = Preemergence, 2000 g ai/ha, visual rating, 0 to 100 scale (0 no effect, 100 complete control)
[9] = 125 g ai/ha, scale 0 (no effect) to 100 (complete control), preemergence
[10] = 250 g ai/ha, scale 0 to 100 (0 no effect, 100 complete control), preemergence

## CCn1nc(C(C)(C)C)cc1C(=O)Nc1cccc(C(=O)OCCF)c1 [Compound 82, 2-fluoroethyl 3-[[[3-(1,1-dimethylethyl)-1-ethyl-1H-pyrazol-5-yl]-carbonyl]amino]benzoate]
johnsongrass; Postemergence, scale 0 to 100
  Johnsongrass plant response rating: 10
johnsongrass; Sorghum halepense, post-emergence, Postemergence, 250 g ai/ha, scale 0 to 100, 0 no effect, 100 complete control, read-out: Plant response rating, Johnsongrass
  pest or weed control at 250 g/ha: 5%
johnsongrass; Sorghum halepense, post-emergence, postemergence, 125 g ai/ha, scale 0 to 100, read-out: Plant response rating, Johnsongrass
  pest or weed control at 125 g/ha: 0%
johnsongrass; Sorghum halepense, post-emergence, postemergence, 62 g ai/ha, scale 0 to 100, read-out: Plant response rating, Johnsongrass
  pest or weed control at 62 g/ha: 0%
Common ragweed; Ambrosia artemisiifolia, post-emergence, Postemergence, 250 g ai/ha, scale 0 to 100, 0 no effect, 100 complete control, read-out: Plant response rating, Ragweed
  pest or weed control at 250 g/ha: 10%
Common ragweed; Ambrosia artemisiifolia, post-emergence, postemergence, 125 g ai/ha, scale 0 to 100, read-out: Plant response rating, Ragweed
  pest or weed control at 125 g/ha: 0%
Common ragweed; Ambrosia artemisiifolia, post-emergence, postemergence, 62 g ai/ha, scale 0 to 100, read-out: Plant response rating, Ragweed
  pest or weed control at 62 g/ha: 0%
Common ragweed; Postemergence, scale 0 to 100
  Ragweed plant response rating: 30
barnyardgrass; post-emergence, Postemergence, 500 g ai/ha, 0 to 100 scale, 0 no effect, 100 complete control, read-out: Plant response rating, Barnyardgrass
  pest or weed control at 500 g/ha: 20%
barnyardgrass; post-emergence, Postemergence, 2000 g ai/ha, 0 to 100 scale, 0 no effect, 100 complete control, read-out: Plant response rating, Barnyardgrass
  pest or weed control at 2000 g/ha: 20%
barnyardgrass; pre-emergence, Preemergence, 500 g ai/ha, visual rating, 0 to 100 scale (0 no effect, 100 complete control), read-out: Barnyardgrass plant response rating
  pest or weed control at 500 g/ha: 0%
barnyardgrass; pre-emergence, Preemergence, 2000 g ai/ha, 0 to 100 scale, 0 no effect, 100 complete control, read-out: Barnyardgrass plant response rating
  pest or weed control at 2000 g/ha: 0%
Giant foxtail [1]; Postemergence, scale 0 to 100
  Foxtail, Giant plant response rating: 30
Giant foxtail [1]; Setaria faberi, post-emergence, 312 h, Postemergence, 250 g ai/ha, scale 0 to 100, 0 no effect, 100 complete control, read-out: Plant response rating, Foxtail, Giant
  pest or weed control at 250 g/ha: 10%
Giant foxtail [1]; Setaria faberi, post-emergence, 312 h, postemergence, 125 g ai/ha, scale 0 to 100, read-out: Plant response rating, Foxtail, Giant
  pest or weed control at 125 g/ha: 0%
Giant foxtail [1]; Setaria faberi, post-emergence, 312 h, postemergence, 62 g ai/ha, scale 0 to 100, read-out: Plant response rating, Foxtail, Giant
  pest or weed control at 62 g/ha: 0%
corn; Postemergence, scale 0 to 100
  Corn plant response rating: 45
corn; Zea mays, post-emergence, 312 h, Postemergence, 250 g ai/ha, scale 0 to 100, 0 no effect, 100 complete control
  Corn plant response rating (crop injury, 0 = no effect, 100 = complete kill) at 250 g/ha: 10%
corn; Zea mays, post-emergence, 312 h, postemergence, 125 g ai/ha, scale 0 to 100
  Corn plant response rating (crop injury, 0 = no effect, 100 = complete kill) at 125 g/ha: 10%
corn; Zea mays, post-emergence, 312 h, postemergence, 62 g ai/ha, scale 0 to 100
  Corn plant response rating (crop injury, 0 = no effect, 100 = complete kill) at 62 g/ha: 10%
Large crabgrass; post-emergence, Postemergence, 500 g ai/ha, 0 to 100 scale, 0 no effect, 100 complete control, read-out: Plant response rating, Crabgrass, Large
  pest or weed control at 500 g/ha: 20%
Large crabgrass; post-emergence, Postemergence, 2000 g ai/ha, 0 to 100 scale, 0 no effect, 100 complete control, read-out: Plant response rating, Crabgrass, Large
  pest or weed control at 2000 g/ha: 30%
Large crabgrass; pre-emergence, Preemergence, 500 g ai/ha, visual rating, 0 to 100 scale (0 no effect, 100 complete control), read-out: Crabgrass, Large plant response rating
  pest or weed control at 500 g/ha: 0%
Large crabgrass; pre-emergence, Preemergence, 2000 g ai/ha, 0 to 100 scale, 0 no effect, 100 complete control, read-out: Crabgrass, Large plant response rating
  pest or weed control at 2000 g/ha: 0%
kochia; Bassia scoparia, post-emergence, Postemergence, 250 g ai/ha, scale 0 to 100, 0 no effect, 100 complete control, read-out: Plant response rating, Kochia
  pest or weed control at 250 g/ha: 50%
kochia; Bassia scoparia, post-emergence, postemergence, 125 g ai/ha, scale 0 to 100, read-out: Plant response rating, Kochia
  pest or weed control at 125 g/ha: 40%
kochia; Bassia scoparia, post-emergence, postemergence, 62 g ai/ha, scale 0 to 100, read-out: Plant response rating, Kochia
  pest or weed control at 62 g/ha: 10%
kochia; Postemergence, scale 0 to 100
  Kochia plant response rating: 70
Giant foxtail [2]; post-emergence, Postemergence, 500 g ai/ha, 0 to 100 scale, 0 no effect, 100 complete control, read-out: Plant response rating, Foxtail, Giant
  pest or weed control at 500 g/ha: 20%
Giant foxtail [2]; post-emergence, Postemergence, 2000 g ai/ha, 0 to 100 scale, 0 no effect, 100 complete control, read-out: Plant response rating, Foxtail, Giant
  pest or weed control at 2000 g/ha: 20%
Giant foxtail [2]; pre-emergence, Preemergence, 500 g ai/ha, visual rating, 0 to 100 scale (0 no effect, 100 complete control), read-out: Foxtail, Giant plant response rating
  pest or weed control at 500 g/ha: 0%
Giant foxtail [2]; pre-emergence, Preemergence, 2000 g ai/ha, 0 to 100 scale, 0 no effect, 100 complete control, read-out: Foxtail, Giant plant response rating
  pest or weed control at 2000 g/ha: 0%

## CCCCOc1cccc(NC(=O)c2cc(C(C)(C)C)nn2CC)c1 [Compound 137]
johnsongrass; 62 g ai/ha, preemergence
  Plant response rating (0 = no effect, 100 = complete control), Johnsongrass: 0
johnsongrass; [3]
  Plant response rating, Johnsongrass: 5
johnsongrass; [4]
  Johnsongrass plant response rating: 40
Common ragweed; 62 g ai/ha, preemergence
  Plant response rating (0 = no effect, 100 = complete control), Ragweed: 0
Common ragweed; [3]
  Plant response rating, Ragweed: 0
Common ragweed; [4]
  Ragweed plant response rating: 100
barnyardgrass; [5]
  Barnyardgrass plant response rating: 20
barnyardgrass; [6]
  Plant response rating, Barnyardgrass: 25
barnyardgrass; [7]
  Barnyardgrass plant response rating: 30
barnyardgrass; [8]
  Barnyardgrass plant response rating: 60
Giant foxtail [1]; 62 g ai/ha, preemergence
  Plant response rating (0 = no effect, 100 = complete control), Foxtail, Giant: 10
Giant foxtail [1]; [9]
  Plant response rating, Foxtail, Giant: 50
Giant foxtail [1]; [10]
  Plant response rating, Foxtail, Giant: 60
Giant foxtail [1]; [4]
  Foxtail, Giant plant response rating: 85
corn; 62 g ai/ha, preemergence
  Plant response rating (0 = no effect, 100 = complete control), Corn: 0
corn; [9]
  Plant response rating, Corn: 5
corn; [10]
  Plant response rating, Corn: 5
corn; [4]
  Corn plant response rating: 5
Large crabgrass; [5]
  Crabgrass, Large plant response rating: 30
Large crabgrass; [6]
  Plant response rating, Crabgrass, Large: 60
Large crabgrass; [7]
  Crabgrass, Large plant response rating: 55
Large crabgrass; [8]
  Crabgrass, Large plant response rating: 90
kochia; 62 g ai/ha, preemergence
  Plant response rating (0 = no effect, 100 = complete control), Kochia: 80
kochia; [3]
  Plant response rating, Kochia: 90
kochia; [4]
  Kochia plant response rating: 100
Giant foxtail [2]; [5]
  Foxtail, Giant plant response rating: 20
Giant foxtail [2]; [6]
  Plant response rating, Foxtail, Giant: 30
Giant foxtail [2]; [7]
  Foxtail, Giant plant response rating: 50
Giant foxtail [2]; [8]
  Foxtail, Giant plant response rating: 80
